Experimental findings from patent publication US20090175845A1, “METHODS FOR IDENTIFYING COMPOUNDS THAT MODULATE PHB DOMAIN PROTEIN ACTIVITY AND COMPOSITIONS THEREOF” (THE TRUSTEES OF COLUMBIA UNIVERSITY IN THE CITY OF NEW YORK, priority 2005, published 2009) are described below.

In experiment [1] the target is T1, NusA fused to the cholesterol binding domain of Podocin (amino acids 119-284) (Mus musculus, UniProt Q91X05).
T1 construct: made in house; host or cells: E. coli
T1 sequence (Q91X05 119-284): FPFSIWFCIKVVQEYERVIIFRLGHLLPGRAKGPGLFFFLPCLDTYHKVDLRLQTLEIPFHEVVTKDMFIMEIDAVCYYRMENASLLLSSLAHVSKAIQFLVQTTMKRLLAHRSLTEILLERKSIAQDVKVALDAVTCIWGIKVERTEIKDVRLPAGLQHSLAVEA
The experiment can be described thus: In vitro cholesterol interaction, scintillation counting of bead-bound recombinant protein. On the procedure:
In vitro cholesterol interaction. Podocin truncations were cloned into various bacterial expression vectors and tested for the expression of soluble recombinant fusion proteins. […] Purity of the preparation was confirmed on Coomassie gels. For in vitro cholesterol interaction assays 2-20 μg of affinity purified Podocin protein was bound to 30 μl of Ni+ beads and incubated with 0.1 μCi [^3H]cholesterol (Amersham) complexed with low amounts of cyclodextrine. After binding for 10 minutes at 37° C. beads were washed extensively and counted in a scintillation counter. To confirm equal loading of the beads aliquots of the bound protein were run on Coomassie gels. Competition experiments were performed with 1 μg of affinity purified Podocin protein fused to NusA or NusA alone as a control. Samples were incubated with radioactively labeled cholesterol in the absence (no cold competition) or presence (cold competition) of varying amounts of […]. Cold competition was approximately 100-fold excess of cold cholesterol. The sample was washed extensively and subjected to scintillation counting.
The importance of different regions of Podocin for cholesterol binding was tested by fusing them to the extracellular and transmembrane domains of Nephrin. […]

Experiment [2] deals with mec-2 null worms expressing the mec-2(C140/174A) gene. Kind of experiment: C. elegans gentle touch sensitivity on plates with defined sterols. To be noted: sterol substituted for cholesterol in the growth medium, FIG. 8C. The experiment is classed as in vivo. The method, then: C. elegans experiments. C. elegans strains were cultured at 20° C., assayed for touch sensitivity, and prepared for immunofluorescence as described previously [Zhang et al. (2004) Curr. Biol. 14:1888-96; Goodman et al. (2002) Nature 415:1039-42]. Briefly, C. elegans strains were cultured at 20° C. as described in the art. Strains were grown for at least three consecutive generations without starvation before carrying out the experiments described herein. Gentle touch and harsh touch sensitivity were assayed in blind tests by stimulating with an eyebrow hair or prodding with a platinum wire, respectively, as described in the art. To quantify the response, the number of responses in about 30 animals to 10 touches delivered alternately near the head and tail was recorded. Whole-mount immunofluorescence microscopy was carried out using methods known in the art.
Media for growth on limiting or no cholesterol or on other sterols were prepared from chloroform-extracted reagents as described by Matyash et al. [(2004) PLoS Biol. 2: e280].
First, a version of MEC-2 with reduced cholesterol binding was generating by mutating the predicted palmitoylation sites of the protein. Briefly, HEK293T cells were transfected with wild type MEC-2 or MEC-2(C140/174A) and labeled with [^3H]palmitic acid or [^3H]photoaffinity cholesterol. Equal expression of proteins in the lysates was confirmed on Western blots. […] Because touch sensitivity of wild-type animals was not affected by this limited cholesterol depletion, the effects observed with the palmitoylation mutant cannot be attributed to indirect effects on neuronal growth or development. Test compounds that target palmitoylation sites in PHB domain proteins can be used to modulate activity of such proteins, for example, by reducing their activity.

As for `CC(C)CCC[C@@H](C)[C@H]1CC[C@H]2[C@@H]3CC=C4C[C@@H](O)CC[C@]4(C)[C@H]3CC[C@]12C` [cholesterol], in experiment [1] (Podocin fragments produced in E. coli, 10 minutes at 37° C.), the “direct binding of [3H]cholesterol in vitro” value was “sufficient for cholesterol binding”. Also, the “cold competition of [3H]cholesterol binding” value in experiment [1] (approximately 100-fold excess of unlabeled cholesterol) was “competed”. Moreover, in experiment [2], the “rescue of reduced touch sensitivity” value was “dependent on the cholesterol concentration”.
